Where two headings read alike, the source gives them in different places.

The target of one data set is 5-HT7Mco1 (Mesocestoides corti, UniProt A0A482LRJ4). As to the kind of experiment: cell-based. In kind it is cell-based. How it is done:
(§1) HEK-293 cells (ATCC CRL-1573.3) were cultured in growth media [DMEM (Gibco), 10% heat inactivated fetal bovine serum (Gibco), penicillin (100units/mL), streptomycin (100μg/mL) and L-glutamine (290μg/mL)] and used for assays between passages 5 and 25. For cestode GPCR heterologous expression assays, cells were transfected (Lipofectamine 2000, Invitrogen) at 80% confluency approximately 16 hours after seeding within T-25 culture flasks with a 1:1 ratio of human codon optimized cestode GPCR cDNA (subcloned into a pcDNA3.1(-) mammalian expression vector) and cDNA encoding the pGloSensor 22-F plasmid (Promega). The following day, cells were trypsinized, centrifuged (300g/5min), resuspended in DMEM supplemented with 1% dialyzed FBS (Gibco) and plated in 96 well, solid white plates (Corning, cat # 3917). After overnight culture to allow adherence, media was exchanged for assay buffer (HBSS supplemented with 0.1% BSA, 20mM HEPES (pH 7.4), and GloSensor reagent (Promega). cAMP-luminescence assays were performed following addition of a phosphodiesterase inhibitor (3-isobutyl-1-methylxanthine, IBMX; 200μM) using a GloMax-Multi Detection System plate reader (Promega) as described previously.

Data set [1] has as its system Mesocestoides corti tetrathyridia. The data set is described as follows: Motility of tetrathyridia by video imaging. To be noted: period of 30 minutes. The procedure:
In some experiments, alongside to the worm tracker motility analyses, the parasite motor activity was also measured with a digital video camera (Kodak easy share Z915 digital camera) coupled to an inverted microscope (Nikon, model TMS-F). Fresh parasites were processed in the same way as in previous sections in U-shape 96-well microplates, then incubated overnight at 37°C in a 5% CO2 atmosphere and finally video recorded with a digital camera after drug treatment. Images were obtained for a period of 15 seconds and the data were analyzed with ImageJ software (version 1.48, NIH, USA). […] To quantify this type of movements the method of Patocka et al. was followed with some modifications. The videos were transformed to stacks of TIFF images by using the Filmora video editor (Wondershare Filmora, version 8.2.3, downloaded from https://filmora.wondershare.es/) and then imported into ImageJ. First, the stacks were first converted to 8 bit type images. Next, the background was subtracted and then converted to a binary image by threshold adjust. […]
Statistical analyses were carried out using the GraphPad Prism Software package, version 6 for Windows (GraphPad Software, CA, USA). […] For image based assays, pixel changes in control and treatments were calculated and analyzed with one way ANOVA and Dunnett post-test were performed comparing all the concentrations with the control. […]

Data set [2] has the same test system. The arrangement: method as in PMID 12003065. As to conditions: 30 minutes of incubation; cited from earlier work.
Data set [3] has the same test system. The data set is described as follows: Motility index of tetrathyridia, WMicrotracker (light scattering). The procedure:
For the motility index measurement, the method of Camicia et al. was followed with minor modifications. In the case of E. granulosus, protoscoleces were mantained in RPMI medium with high glucose (Gibco, USA) with 50 μg/ml of gentamicin for no more than 48 hours in order to avoid the potential differentiation of the protoscolex towards premicrocyst. The day before the experiment the protoscoleces were transferred to U-shape 96-well microplates (Greiner Bio-One, Germany) with approximately 125 parasites per 100 μl per well. This number of parasites per well was empirically determined as the best number of worms to perform the experiments. Movement was measured as described for C. elegans using a worm tracker device (WMicrotracker Designplus SRL, Argentina) which determines the motility index by the light-microbeam (100 μm wide; k = 880 nm; intensity <1 mW) scattering produced by the movement of parasites. Quantification of the signal was performed by applying a mathematical algorithm previously described for sperm viability determination (Patent number: US4176953, year of submission: 1978, year of publication: 1979).
To study the effect of 5-HT on the motility of M. corti tetrathyridia, only one worm per well was used as this was the empirically determined optimal number. […] M. corti tetrathyridia were used fresh, immediately after the mice was opened. […]

Another data set concerns the target 5-HT7Egran2 (Echinococcus canadensis, UniProt A0A482LXK0). As to the kind of experiment: cell-based. Format: cell-based, Echinococcus granulosus. How it is done: as §1
The next data set concerns the target 5-HT7Egran1 (Echinococcus canadensis, UniProt A0A482LU10). As to the kind of experiment: cell-based. Format: cell-based, Echinococcus granulosus. As to conditions: for pharmacological behaviour (agonist/antagonist, efficacy) in cAMP assay: 5-HT7Egran1. How it is done:
as §1
A general note: cAMP levels reflect the balance of adenylyl cyclase and phosphodiesterase activity.

A further data set addresses human 5-HT1A receptor. The arrangement: method as in PMID 24900203. As to conditions: cited from earlier work.

Chain of 5-HT7Mco1 (A0A482LRJ4 entry or part of it): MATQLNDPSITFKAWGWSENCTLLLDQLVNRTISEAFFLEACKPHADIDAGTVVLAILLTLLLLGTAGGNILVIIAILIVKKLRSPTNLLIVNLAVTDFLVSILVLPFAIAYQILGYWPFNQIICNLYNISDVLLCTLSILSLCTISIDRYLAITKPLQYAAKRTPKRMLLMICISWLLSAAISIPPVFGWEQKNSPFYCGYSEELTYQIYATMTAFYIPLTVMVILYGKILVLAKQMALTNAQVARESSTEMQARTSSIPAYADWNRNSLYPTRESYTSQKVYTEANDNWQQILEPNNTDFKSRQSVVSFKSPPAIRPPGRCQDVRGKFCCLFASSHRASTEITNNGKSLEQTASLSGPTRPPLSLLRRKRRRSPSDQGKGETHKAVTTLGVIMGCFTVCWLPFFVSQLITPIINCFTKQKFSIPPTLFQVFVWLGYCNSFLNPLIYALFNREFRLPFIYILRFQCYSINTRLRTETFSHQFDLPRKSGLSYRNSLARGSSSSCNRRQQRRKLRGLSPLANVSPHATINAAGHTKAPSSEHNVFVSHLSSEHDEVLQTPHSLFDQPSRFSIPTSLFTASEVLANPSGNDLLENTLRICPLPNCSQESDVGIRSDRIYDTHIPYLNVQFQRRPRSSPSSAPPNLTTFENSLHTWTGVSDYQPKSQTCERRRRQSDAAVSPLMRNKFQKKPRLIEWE
Chain of 5-HT7Egran2 (A0A482LXK0 entry or part of it): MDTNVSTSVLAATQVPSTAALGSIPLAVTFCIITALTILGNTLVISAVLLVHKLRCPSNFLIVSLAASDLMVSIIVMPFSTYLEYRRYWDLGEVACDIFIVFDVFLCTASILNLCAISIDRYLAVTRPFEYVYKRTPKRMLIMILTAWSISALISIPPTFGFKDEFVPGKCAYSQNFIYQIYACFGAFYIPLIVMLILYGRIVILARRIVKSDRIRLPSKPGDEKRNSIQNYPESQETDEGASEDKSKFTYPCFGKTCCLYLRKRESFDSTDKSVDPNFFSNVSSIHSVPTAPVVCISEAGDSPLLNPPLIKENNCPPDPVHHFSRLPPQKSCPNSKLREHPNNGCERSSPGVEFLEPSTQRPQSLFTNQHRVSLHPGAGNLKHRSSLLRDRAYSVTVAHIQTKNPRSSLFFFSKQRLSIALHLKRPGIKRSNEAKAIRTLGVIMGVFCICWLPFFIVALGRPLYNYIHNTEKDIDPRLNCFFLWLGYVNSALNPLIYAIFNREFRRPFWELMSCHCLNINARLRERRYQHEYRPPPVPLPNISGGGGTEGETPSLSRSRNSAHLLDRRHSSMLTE
Chain of 5-HT7Egran1 (A0A482LU10 entry or part of it): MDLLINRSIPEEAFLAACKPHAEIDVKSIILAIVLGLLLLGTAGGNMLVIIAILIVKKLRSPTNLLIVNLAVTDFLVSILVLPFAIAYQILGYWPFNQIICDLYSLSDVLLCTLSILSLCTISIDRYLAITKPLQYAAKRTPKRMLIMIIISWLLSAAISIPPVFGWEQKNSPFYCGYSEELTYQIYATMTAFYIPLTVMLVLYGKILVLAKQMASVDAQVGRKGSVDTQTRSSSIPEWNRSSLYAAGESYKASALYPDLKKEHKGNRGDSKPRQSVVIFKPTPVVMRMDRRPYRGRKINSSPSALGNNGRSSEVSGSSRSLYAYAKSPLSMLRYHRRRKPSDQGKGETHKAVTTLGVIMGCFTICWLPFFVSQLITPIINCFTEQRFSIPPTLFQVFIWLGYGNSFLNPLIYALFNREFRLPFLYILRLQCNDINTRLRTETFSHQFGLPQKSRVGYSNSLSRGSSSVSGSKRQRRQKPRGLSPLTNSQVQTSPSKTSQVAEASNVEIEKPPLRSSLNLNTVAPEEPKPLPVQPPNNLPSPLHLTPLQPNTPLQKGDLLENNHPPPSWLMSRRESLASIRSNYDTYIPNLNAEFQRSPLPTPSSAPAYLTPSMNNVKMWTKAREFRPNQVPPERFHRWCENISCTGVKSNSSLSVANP

Regarding `NCCc1c[nH]c2ccc(O)cc12` [5-HT, 5-hydroxytryptamine], the concentration for a half-maximal effect (EC50) stood at 0.255 ± 0.063 nM on 5-HT7Mco1; 0.543 ± 0.107 nM at 5-HT7Egran2 (HEK-293 cells expressing 5-HT7Egran2, IBMX 200μM, read-out: EC50 for evoked cAMP production); 171 ± 57 nM at 5-HT7Egran1. Moreover, the “fold-change in luminescence signal on addition of 5-HT” value is ~ 2.5 fold at 5-HT7Mco1 (cells expressing 5-HT7Mco1, basal coupling); ~ 3.3 fold on 5-HT7Egran2 (cells expressing 5-HT7Egran2, basal coupling); ~ 20 fold on 5-HT7Egran1 (cells expressing 5-HT7Egran1). Further, the “concentration necessary for significant changes in motility” value in data set [1] came to 1000 µM. Besides, the “concentration previously reported to stimulate tetrathyridia motility” value in data set [2] is 100 nM. The “concentration from which stimulation of motility is observed” value in data set [3] (30 minutes of incubation, light scattering method) was no less than 500 µM. Further, the “concentration from which a significant rise of motility is seen” value in data set [3] (period of two hours, WMicrotracker, up to 2000 μM) is no less than 100 µM.
As for `CCN(CC)C(=O)[C@@H]1C=C2c3cccc4[nH]cc(c34)C[C@H]2N(C)C1` [LSD, Lysergic acid diethylamide], the figures for the 50% effective concentration (EC50) at 5-HT7Mco1 and at 5-HT7Egran1 were 4.4 ± 1 nM and 35 ± 6 nM, respectively. The “pharmacological behaviour (agonist/antagonist, efficacy) in cAMP assay” value at 5-HT7Mco1 (5-HT7Mco1) is listed as “potently activated”; at 5-HT7Egran2 (5-HT7Egran2) it was “antagonist”; at 5-HT7Egran1 it was “potently activated”. The compound further had a concentration for half-maximal inhibition (IC50) on 5-HT7Egran2 of 2.9 ± 0.2 nM.
With `CN(C)c1cccc2c(S(=O)(=O)NCCCCC34CCCN3C(=O)N(CCCCN3CCN(c5cccc6ccccc56)CC3)C4=O)cccc12` (centres unmarked) [UCM120], the Ki at human 5-HT1A receptor is 2 nM.
For the compound `CN1C[C@H](C(=O)N[C@]2(C)O[C@@]3(O)[C@@H]4CCCN4C(=O)[C@H](Cc4ccccc4)N3C2=O)C=C2c3cccc4[nH]cc(c34)C[C@H]21` [ergotamine], the figures for the concentration for a half-maximal effect (EC50) on 5-HT7Mco1, at 5-HT7Egran2 and at 5-HT7Egran1 were 354 ± 62 nM, 234 ± 37 nM and 290 ± 49 nM, respectively. Further, the “pharmacological behaviour (agonist/antagonist, efficacy) in cAMP assay” value at 5-HT7Mco1 (5-HT7Mco1) is given as “higher efficacy partial agonist”; at 5-HT7Egran2 (5-HT7Egran2) it was “higher efficacy partial agonist”; on 5-HT7Egran1, “low efficacy partial agonist”.
`NCCc1c[nH]c2ccccc12` [tryptamine]: the EC50 on 5-HT7Mco1 is roughly 1000 nM; at 5-HT7Egran2, roughly 800 nM. Also, the “cAMP response to neurotransmitter (activation)” value on 5-HT7Mco1 (10μM, cells expressing 5-HT7Mco1) was “activator”; at 5-HT7Egran2 (10μM, cells expressing 5-HT7Egran2), “activator”. Besides, the “sensitivity to tryptamine relative to 5-HT (fold less sensitive)” value at 5-HT7Mco1 (5-HT7Mco1) and on 5-HT7Egran2 (5-HT7Egran2) was “at least 1000 fold” each time.

As a reminder, the EC50 is the concentration at which the effect is half-maximal. Broadly, the IC50 is the concentration at which inhibition is half-maximal. Low readings indicate inhibition by little substance, high ones a need for much substance. A word on the Ki: it is the equilibrium dissociation constant of an inhibitor or competing ligand from its target.
